Results as given in patent US7700272B2, “Polynucleotides encoding acetylcholine-gated chloride channel subunits of Caenorhabditis elegans” (priority 2004, dated 2010).
“Also recorded” adds a separate entry of the source. Where two headings read alike, the source gives them in different places. Marks after values point to notes of the source that are not given here.

What was measured:
rat α9nAChRs = rat α9nAChRs (Rattus norvegicus, UniProt P43144); settings: cited from earlier work
[1] = target: Aplysia receptors mediating the slow desensitizing chloride-dependent response; settings: cited from earlier work
ACC-2D6.3 channel = ACC-2D6.3 channel (Caenorhabditis elegans, UniProt Q18812); assay: cell-based
Source text: (§1) For capped cRNA synthesis, cDNAs were subcloned into the pT7N vector, which contains a T7 RNA polymerase promoter, the 5′- and 3′-UTR of Xenopus laevis beta-globin, and an encoded poly(A+) tail (Cary R B, Klymkowsky M W, Evans R M, Domingo A, Dent J A, Backhus L E (1994) Vimentin's tail interacts with actin-containing structures in vivo. J Cell Sci 107:1609-1622.). The pT7NcDNA constructs were linearized with Sal I (ACC-2D6.3) or BamHI (ACC-1G6.4) and transcribed using the MEGAscript Kit (Ambion, Austin, Tex., USA). Synthesized cRNAs were recovered by LiCl precipitation and resuspended in nuclease-free H2O at final concentration of 1 microgram/ml.
(§2) Oocytes were harvested from mature female Xenopus leavis according to standard procedures (Goldin, A. L. (1992) Maintenance of Xenopus laevis and oocyte injection. Methods Enzymol. 207: 266-79.). To remove inner ovarian epithelium, thecal cell layer, and follicular cells, the ovarian pieces were placed in OR-2 solution: 82.5 mM NaCl, 2 mM KCl, 1 mM MgCl2, and 5 mM Hepes (pH 7.5) containing 1 mg/ml type I collagenase (Sigma, St Louis Mo., USA) either for 3 hours at 20° C. with gentle agitation or for 1 hour followed by manual defolliculization. The stage VI defolliculated oocytes were placed in ND96 solution (96 mM NaCl, 2 mM KCl, 1.8 mM CaCl2, 1 mM MgCl2, and 5 mM Hepes, pH7.5). Oocytes were injected with 40 nl of cRNA using the Nanoject system (Drummond Scientific, Broomall, Pa., USA). Injected oocytes were incubated at 20° C. in ND96 supplemented with […] gentamycin and […] pyruvate. Oocytes were allowed to express cRNA for two days before measurements were taken.
(§3) Two-electrode voltage-clamp recordings were performed using the AxoClamp 2B amplifier (Axon Instruments, Foster City, Calif., USA). Microelectrodes were pulled from borosilicate glass capillaries (Word Precision Instruments, Inc., Sarasota, Fla., USA) on the P-97 micropipette puller Sutter Instruments, Novato, Calif., USA). […] Each oocyte was placed in RC-12 recording chamber (Warner Instrument Inc., Hamden, Conn., USA) or a Maltese cross chamber (ALA Scientific Instruments, Westbury, N.Y., USA) and clamped at −80 mV. Data were acquired at 1 kHz using Clampex software (Axon Instruments, Foster City, Calif., USA).
(§4) Dose-response curves for agonists were generated by their applying the agonist in increasing concentrations followed by 3-9 min washes at each concentration. To determine EC50 and Hill coefficient agonist dose response curves were fit using the following equation: f(I)=(Imax[I]^n/(EC50^n+[I]^n))+Imin, where I is the normalized response to agonist at certain concentration, Imax is the maximal response elicited by a saturating concentration of agonist, EC50 is the concentration of agonist inducing half-maximal response, n is the Hill coefficient, and Imin is the normalized response at lowest agonist concentration.
(§5) The mean and standard error of the mean of peak current responses of at least three oocytes per experiment are represented.
(§6) All drugs were obtained from Sigma-Aldrich (St. Louis, Mo. USA) except imidicloprid (IMI) which was provided by Crompton Co. (Guelph, ON, Canada). Drugs were dissolved in ND96 except IMI, which was made as a stock solution in DMSO and diluted to working concentrations in ND96. If required, drug solutions were adjusted to pH 7.5 with either NaOH or HCl. Fresh solutions were prepared before measurements and stored at 4° C. for 1-5 days.

ACC-1G6.4 channel = target: T1, ACC-1G6.4 channel (Caenorhabditis elegans, UniProt Q21005); assay: Two-electrode voltage-clamp of Xenopus oocytes expressing ACC-1G6.4 homomeric channel; type: cell-based, C. elegans; settings: for response (in words): 1 mM
T1 construct: Agonist: percentage of maximal acetylcholine-elicited response; other: compound at 0.1 mM; Agonist: percentage of maximal acetylcholine-elicited response; other: compound at 0.2 mM; other: compound at 0.4 mM; other: compound at 0.8 mM; Agonist: percentage of maxim
Source text: as §1, §2, §3, §4, §5, §6

ACC-4E9.9 = assay: Two-electrode voltage-clamp of Xenopus oocytes injected with ACC-4E9.9 cRNA; type: cell-based, C. elegans; settings: 1 mM
Description: (§7) Oocytes were harvested from mature female Xenopus leavis according to standard procedures (Goldin, A. L. (1992) Maintenance of Xenopus laevis and oocyte injection. Methods Enzymol. 207: 266-79.). To remove inner ovarian epithelium, thecal cell layer, and follicular cells, the ovarian pieces were placed in OR-2 solution: 82.5 mM NaCl, 2 mM KCl, 1 mM MgCl2, and 5 mM Hepes (pH 7.5) containing 1 mg/ml type I collagenase (Sigma, St Louis Mo., USA) either for 3 hours at 20° C. with gentle agitation or for 1 hour followed by manual defolliculization. The stage VI defolliculated oocytes were placed in ND96 solution (96 mM NaCl, 2 mM KCl, 1.8 mM CaCl2, 1 mM MgCl2, and 5 mM Hepes, pH7.5). Oocytes were injected with 40 nl of cRNA using the Nanoject system (Drummond Scientific, Broomall, Pa., USA). Injected oocytes were incubated at 20° C. in ND96 supplemented with 100 mg/ml gentamycin and 550 mg/ml pyruvate. Oocytes were allowed to express cRNA for two days before measurements were taken.

ACC-3D10.5 = assay: Two-electrode voltage-clamp of Xenopus oocytes injected with ACC-3D10.5 cRNA; type: cell-based, C. elegans; settings: 1 mM
Description: as §7

[2] = concentration tested in brackets where printed
[3] = concentration tested in brackets where printed, listed as d-tubocurarine
[4] = read-out: Agonist: percentage of maximal acetylcholine-elicited response

Sequence of rat α9nAChRs (P43144 26-479): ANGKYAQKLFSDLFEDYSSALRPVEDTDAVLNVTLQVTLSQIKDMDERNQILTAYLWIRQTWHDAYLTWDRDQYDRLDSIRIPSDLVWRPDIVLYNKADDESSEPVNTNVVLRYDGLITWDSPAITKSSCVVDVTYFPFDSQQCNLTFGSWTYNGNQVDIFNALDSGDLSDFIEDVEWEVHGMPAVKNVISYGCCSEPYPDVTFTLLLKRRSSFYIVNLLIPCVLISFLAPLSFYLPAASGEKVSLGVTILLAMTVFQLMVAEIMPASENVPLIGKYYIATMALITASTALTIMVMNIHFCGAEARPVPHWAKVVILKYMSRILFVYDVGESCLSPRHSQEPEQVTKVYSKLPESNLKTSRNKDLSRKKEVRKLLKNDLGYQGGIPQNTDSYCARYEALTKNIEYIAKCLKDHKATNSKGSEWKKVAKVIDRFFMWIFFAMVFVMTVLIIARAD
T1 sequence (Q21005 whole entry, looked up): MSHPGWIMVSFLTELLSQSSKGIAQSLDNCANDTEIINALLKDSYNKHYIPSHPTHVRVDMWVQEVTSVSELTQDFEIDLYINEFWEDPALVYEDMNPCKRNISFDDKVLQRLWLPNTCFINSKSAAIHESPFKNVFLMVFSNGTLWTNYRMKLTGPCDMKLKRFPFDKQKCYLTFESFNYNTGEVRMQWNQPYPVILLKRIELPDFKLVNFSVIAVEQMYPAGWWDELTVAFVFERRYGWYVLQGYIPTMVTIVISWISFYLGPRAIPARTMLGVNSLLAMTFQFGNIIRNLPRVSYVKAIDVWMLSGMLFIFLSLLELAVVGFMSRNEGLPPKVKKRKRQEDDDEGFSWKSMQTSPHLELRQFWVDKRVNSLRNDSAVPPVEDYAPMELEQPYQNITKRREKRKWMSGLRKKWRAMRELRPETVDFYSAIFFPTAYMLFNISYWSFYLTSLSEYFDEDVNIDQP
Sequence of ACC-2D6.3 channel (Q18812 whole entry, looked up): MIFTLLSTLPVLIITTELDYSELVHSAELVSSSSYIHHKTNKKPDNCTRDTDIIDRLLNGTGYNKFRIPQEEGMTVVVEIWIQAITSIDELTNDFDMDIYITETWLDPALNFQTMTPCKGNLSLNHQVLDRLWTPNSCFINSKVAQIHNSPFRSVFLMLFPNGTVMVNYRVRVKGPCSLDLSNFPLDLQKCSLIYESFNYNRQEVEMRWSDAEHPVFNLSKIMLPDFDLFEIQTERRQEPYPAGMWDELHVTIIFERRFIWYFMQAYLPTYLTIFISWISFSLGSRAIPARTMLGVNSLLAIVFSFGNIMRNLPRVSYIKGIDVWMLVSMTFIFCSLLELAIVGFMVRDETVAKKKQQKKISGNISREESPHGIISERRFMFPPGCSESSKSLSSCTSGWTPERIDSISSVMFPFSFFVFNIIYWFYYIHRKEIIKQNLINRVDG

CN1[C@@H]2CC[C@H]1C[C@@H](OC(=O)C(CO)c1ccccc1)C2 (stereo partly shown) [atropine]
IC50 (rat α9nAChRs): 1 µM
agonist action (in words) (rat α9nAChRs): no agonistic
antagonist action (in words) (rat α9nAChRs): Antagonist

α-bungarotoxin [α-BT]
IC50 [1]: ~1 µM
antagonist action (in words) [1]: Antagonist
Agonist: percentage of maximal acetylcholine-elicited response (ACC-2D6.3 channel): 0%
Antagonist: percentage decrease in a response to acetylcholine (ACC-2D6.3 channel): 0%
antagonist action (in words) (rat α9nAChRs): Antagonist
IC50 (rat α9nAChRs; read-out: IC50): 0.004 µM
Agonist: percentage of maximal acetylcholine-elicited response (ACC-1G6.4 channel): 0%
Antagonist: percentage decrease in a response to acetylcholine (ACC-1G6.4 channel): 0%
antagonist action (in words) (ACC-1G6.4 channel): no effect; also recorded: not blocked; also recorded: no antagonistic

COc1cc2c3cc1Oc1cc(ccc1O)C[C@@H]1c4c(cc(OC)c(O)c4Oc4ccc(cc4)C[C@@H]3N(C)CC2)CC[N+]1(C)C [d-TC, d-tubocurarine]
IC50 ([1]; Table 4): ~40 µM
antagonist action (in words) [1]: Antagonist
Agonist: percentage of maximal acetylcholine-elicited response (ACC-2D6.3 channel; compound at 20 μM): 0%
antagonist action (in words) (ACC-2D6.3 channel; [2]): Antagonist
antagonist action (in words) (ACC-2D6.3 channel; [3]): irreversibly
IC50 (ACC-2D6.3 channel; read-out: IC50 (range or bound), Table 4, order of magnitude): < 20 µM
IC50 (rat α9nAChRs; Table 4, read-out: IC50): 0.3 µM
antagonist action (in words) (rat α9nAChRs): Antagonist
Antagonist: percentage decrease in a response to acetylcholine (ACC-1G6.4 channel): 100^a ^ %
IC50 (ACC-1G6.4 channel; Table 4, order of magnitude, read-out: IC50 (range or bound)): < 20 µM
Agonist: percentage of maximal acetylcholine-elicited response (ACC-1G6.4 channel; compound at 20 μM): 0%
antagonist action (in words) (ACC-1G6.4 channel; [2]): Antagonist
antagonist action (in words) (ACC-1G6.4 channel; [3]): irreversibly

O=C1C[C@@H]2OCC=C3CN4CC[C@]56c7ccccc7N1[C@H]5[C@H]2[C@H]3C[C@H]46 [strychnine]
Agonist: percentage of maximal acetylcholine-elicited response (ACC-2D6.3 channel): 0%
antagonist action (in words) (ACC-2D6.3 channel): Antagonist
estimated Hill coefficient (antagonist) (ACC-2D6.3 channel): 1.38±0.12
IC50 (ACC-2D6.3 channel; IC50 (block of channel)): 2.95 ± 0.8 µM
IC50 (ACC-2D6.3 channel; IC50 (range or bound)): ~10 µM
IC50 (rat α9nAChRs): 0.0179 µM
Antagonist: percentage decrease in a response to acetylcholine (ACC-1G6.4 channel): 96 ± 1.2%
IC50 (ACC-1G6.4 channel; IC50 (block of channel)): 4.61 ± 0.27 µM
IC50 (ACC-1G6.4 channel; IC50 (range or bound)): ~10 µM
activation at 50 µM (ACC-1G6.4 channel; [4]): 0%

NCCc1c[nH]cn1 [histamine]
response (in words) (ACC-4E9.9): did not respond
response (in words) (ACC-3D10.5): did not respond
response (in words) (ACC-1G6.4 channel): did not respond

C[N+](C)(C)CCCCCC[N+](C)(C)C [C6, hexamethonium]
Agonist: percentage of maximal acetylcholine-elicited response (ACC-2D6.3 channel): 0%
antagonist action (in words) (ACC-2D6.3 channel): antagonists
agonist action (in words) (ACC-1G6.4 channel): simultaneously as an agonist and an antagonist
antagonist action (in words) (ACC-1G6.4 channel): antagonists
activation at 200 µM (ACC-1G6.4 channel; [4]): 0%
activation at 1000 µM (ACC-1G6.4 channel; [4]): 10 ± 2.6%

O=[N+]([O-])NC1=NCCN1Cc1ccc(Cl)nc1 [IMI, imidacloprid]
antagonist action (in words) (ACC-2D6.3 channel): only partially blocked
Antagonist: percentage decrease in a response to acetylcholine (ACC-1G6.4 channel): 0%
activation at 10 µM (ACC-1G6.4 channel; compound at 10 μM, read-out: Agonist: percentage of maximal acetylcholine-elicited response): 0%
antagonist action (in words) (ACC-1G6.4 channel; [2]): no effect

C[C@@H]1O[C@H](C[N+](C)(C)C)C[C@H]1O [muscarine]
IC50 (rat α9nAChRs): 84 µM
agonist action (in words) (rat α9nAChRs): no agonistic activity
antagonist action (in words) (rat α9nAChRs): Antagonist
Antagonist: percentage decrease in a response to acetylcholine (ACC-1G6.4 channel): 51.6 ± 5.9%
IC50 (range) (ACC-1G6.4 channel): IC50: mM range
agonist action (in words) (ACC-1G6.4 channel): no agonistic activity
antagonist action (in words) (ACC-1G6.4 channel): Antagonist; also recorded: weak antagonistic activity
activation at 1000 µM (ACC-1G6.4 channel; [4]): 0%

CO[C@H]1CC=C2CCN3CCC4=C(CC(=O)OC4)[C@]23C1 [dβe, dihydro-β-erythroidine]
IC50 ([1]; Table 4): ~20 µM
antagonist action (in words) [1]: Antagonist
Agonist: percentage of maximal acetylcholine-elicited response (ACC-2D6.3 channel): 0%
IC50 (ACC-2D6.3 channel): ~10 µM
IC50 (rat α9nAChRs; Table 4, read-out: IC50): 24.2 µM
antagonist action (in words) (rat α9nAChRs): Antagonist
IC50 (ACC-1G6.4 channel; Table 4, order of magnitude, read-out: IC50 (range)): ~100 µM
Agonist: percentage of maximal acetylcholine-elicited response (ACC-1G6.4 channel; compound at 0.4 mM): 0%
antagonist action (in words) (ACC-1G6.4 channel; [2]): Antagonist
antagonist action (in words) (ACC-1G6.4 channel; concentration tested in brackets where printed, listed as Dihydro-β-erythroidine): antagonist
antagonist action (in words) (ACC-1G6.4 channel; concentration tested in brackets where printed, listed as dihydro-β-erythroidine): antagonists

NCC(=O)O [glycine]
response (in words) (ACC-4E9.9): did not respond
response (in words) (ACC-3D10.5): did not respond
response (in words) (ACC-1G6.4 channel): did not respond
